pIC50: −log10 of the molar value. Like-named read-outs stand apart in the source and are kept apart here.
Tests used:
[1] = test system: pentylenetetrazole (Metrazol) induced seizures; assay: Subcutaneous pentylenetetrazole (Metrazol) seizure threshold test (Met) in mice; format: in vivo, male Carworth Farms number-1 mice; conditions: for (Maximum Ineffective) Intraperitoneal Dose, Met: Table 7, value in parentheses = maximum ineffective dose; for minimal effective dose: Mus musculus, ip; for Sc MET / Sc MET repeated: protected: mice i.p.; for Sc MET repeated: protected: repeat
Description: (§1) Compounds were screened for anticonvulsant activity in male Carworth Farms number-1 mice. Test solutions of all compounds were prepared in 30% polyethylene glycol 400, and animals were dosed intraperitoneally at either 30 minutes or 4 hours prior to testing. Testing was conducted on four mice at each of three dose levels (30, 100, and 300 mg/kg).
(§2) In the subcutaneous pentylenetetrazole (Metrazol) seizure threshold test(met), 85 mg/kg pentylenetetrazole was administered as a 0.5% solution in the posterior midline. Protection in this test was defined as a failure to observe a single episode of clonic spasms of at least 5 s duration during the 30 minute period following administration of the convulsive agent.
as §1, with “Biological testing--Compounds” for “Compounds”, “number-one” for “number-1”, “min” for “minutes”, “h” for “hours”
as §2, with “test (Met),” for “test(met),”, “min” for “minute”

[2] = test system: maximal electroshock seizures (MES); assay: animal or person; format: in vivo, male Carworth Farms number-1 mice; conditions: for minimal effective dose: Mus musculus, ip; for MES: mice i.p.
Description: as §1
(§3) Maximal electroshock seizures (MES) were elicited with a 60 cycle alternatiing current of 50-mA intensity (five to seven times that necessary to evoke minimal electroshock threshold seizures). Current was delivered via corneal electrodes for 0.2 s. A drop of 0.9% saline was instilled in the eye prior to application of electrodes. Abolition of the hindlimb tonic extension component of the seizure was defined as protection in the MES test.
as §1, with “Biological testing--Compounds” for “Compounds”, “number-one” for “number-1”, “min” for “minutes”, “h” for “hours”
as §3, with “alternating” for “alternatiing”

[3] = Rotorod test for neurological deficit (TOX) in mice; format: in vivo, male Carworth Farms number-1 mice; conditions: mouse, in vivo, ip
Description: as §1
(§4) Animals were also tested for neurological deficit using the rotorod. After treatment, the animal was placed on a 1 inch diameter knurled plastic rod rotating at 6 rpm. Neurologic deficit was defined as the failure of the animal to remain on the rod for 1 minute.
as §1, with “Biological testing--Compounds” for “Compounds”, “number-one” for “number-1”, “min” for “minutes”, “h” for “hours”
(§5) Animals were also tested for neurological deficit using the rotorod. After treatment, the animal was placed on a 1 inch diameter knurled plastic rod rotating at 6 rpm. Neurologic deficit was defined as the failure of the animal to remain on the rod for 1 min.

[4] = molecular target: T1, strychnine-insensitive glycine binding site of the NMDA receptor (Rattus norvegicus, UniProt P35439); assay: Inhibition of [3H]glycine specific binding (strychnine-insensitive) in rat cerebral cortex membranes; conditions: 10 uM compound
T1 construct: Membranes were prepared from rat cerebral cortex; from tissue; host or cells: rat cerebral cortex, "buffy coat" membranes
Description: Binding Studies--Inhibition of [^3 H]glycine specific binding was assayed using [^3 H]glycine (43 Ci/mmol) obtained from DuPont-New England Nuclear. […] Membranes were prepared from rat cerebral cortex and assays were conducted in Na-free 50 mM HEPES (Sigma) at pH 7.4. Membranes were incubated in a final volume of 1 ml with 20 nM [^3 H]glycine and a 10 uM concentration of the test compound. Although experience has shown that [^3 H]glycine binding in this preparation is strychnine insensitive, 10 uM strychnine was added to the assay mixtures to eliminate the possibility that any effects studied could be mediated through a strychnine-sensitive process. Incubation was continued for 20 min at 4° C. Non-specific binding was determined in the presence of 1 mM glycine and subtracted. All conditions were tested in triplicate in 3 different assays. Binding was terminated using a Brandel M-24C cell harvester employing rapid filtration through GF/C glass fiber filters pre-soaked in 1% (V/V) polyethylenimine. Filters were washed twice with 5 ml buffer cooled to 4° C. Radioactivity bound to the filters was determined with a Beckman LS-500OTD liquid scintillation counter.

[5] = test system: seizures induced by electroshock and pentylenetetrazole; assay: Anticonvulsant testing, overall (MES and Met); format: in vivo, male Carworth Farms number-1 mice; conditions: for minimal effective dose: Mus musculus, ip, read-out: dose level with anticonvulsant activity (test not given)
Description: as §1, §3, §2
as §1, with “Biological testing--Compounds” for “Compounds”, “number-one” for “number-1”, “min” for “minutes”, “h” for “hours”
as §3, with “alternating” for “alternatiing”
as §2, with “test (Met),” for “test(met),”, “min” for “minute”

[6] = molecular target: T1, strychnine-insensitive glycine binding site of the NMDA receptor; conditions: literature value of the standard; read-out: IC50 for glycine binding in this test system; cited from earlier work
[7] = test system: NMDA-associated glycine site; conditions: Xenopus oocytes injected with rat brain mRNA (Kleckner and Dingledine, 1989); cited from earlier work
[8] = molecular target: quisqualate receptor; conditions: cited from earlier work
[9] = molecular target: strychnine-insensitive glycine binding site; conditions: see also Kemp et al., 1988; cited from earlier work
[10] = test system: anticonvulsant activity; conditions: Wong et al., 1986; Singh et al., 1990; cited from earlier work
[11] = molecular target: NMDA receptor; conditions: cited from earlier work
[12] = molecular target: kainate receptor; conditions: cited from earlier work
[13] = test system: potentiating action of glycine on current elicited by NMDA; conditions: whole cells (Huettner, 1989); cited from earlier work
[14] = test system: quinolinic acid induced seizures; conditions: intracerebroventricular, CD-1 mice (Baron et al., 1990); cited from earlier work
[15] = test system: neurological deficit (rotorod); assay: Rotorod test for neurological deficit (TOX) in mice; format: in vivo, male Carworth Farms number-1 mice; conditions: mouse, in vivo
Description: as §1, §4
as §1, with “Biological testing--Compounds” for “Compounds”, “number-one” for “number-1”, “min” for “minutes”, “h” for “hours”
as §5

[16] = Solubility in aqueous solutions and in chloroform and other non-polar solvents; format: physicochemical
[17] = test system: inhibitory (strychnine-sensitive) glycine receptors in the spinal cord; conditions: White et al. 1989; Huettner 1989; cited from earlier work
[18] = Table 7, value without parentheses = effective dose, read-out: Effective Intraperitoneal Dose, MES
[19] = mice, intraperitoneal, read-out: dose active in MES test
[20] = Table 7, value without parentheses = effective dose, read-out: Effective Intraperitoneal Dose, Met
[21] = mice, intraperitoneal, read-out: dose active in Met test

With `CCOC(=O)c1cc(O)c2c(F)cc(F)cc2n1` [5,7-di-F-kyn-2-ethyl ester] the “(Maximum Ineffective) Intraperitoneal Dose, Met” value [1] was 300 mg/kg, the minimal effective dose [2, 18] was 300 mg/kg and the minimal effective dose [2, 19] was 300 mg/kg. For the same compound, the “MES activity” value ([2]; mice, intraperitoneal) was “MES activity at this dose level” and the NOAEL [3] was 300 mg/kg.

`CCOC(=O)c1cc2cc(F)ccc2[nH]1` [5-F-indole-2-ethyl ester, 5-fluoro-indole-2-ethyl carboxylate] gave a minimal effective dose [1, 20] of 300 mg/kg, a minimal effective dose [1, 21] of 300 mg/kg and a minimal effective dose [2, 18] of 100 mg/kg. For the same compound, the minimal effective dose [2, 19] was 100 mg/kg and the NOAEL [3] was 300 mg/kg.

`CCCCOC(=O)c1cc2cc(F)ccc2[nH]1` [5-F-indole-2-butyl ester, butyl ester of 5-fluoro-indole-2-carboxylic acid] gave a minimal effective dose [1, 20] of 300 mg/kg, a minimal effective dose [1, 21] of 300 mg/kg and an NOAEL [3] of 300 mg/kg. The “[3H]glycine binding inhibition” value [4] was “binding characteristics were similar to those of the ethyl ester” and the minimal effective dose ([5]; mice, intraperitoneal) was 300 mg/kg.

For `O=C(O)c1cc(O)c2ccc(Cl)cc2n1` [7-Cl-Kyn, 7-chloro-kynurenic acid], the pIC50 [6] is listed as 6.25 to 6.57, the “more potent as antagonist at the NMDA-associated glycine site than at the receptor mediating kainate currents” value [7] is listed as “approximately 40 fold” and the pIC50 ([8]; see also Kemp et al., 1988) is listed as 3.82. For the same compound, the pIC50 [9] was 6.25, the “anticonvulsant activity (words, literature)” value [10] was “demonstrate anticonvulsant activity” and the pIC50 ([11]; see also Kemp et al., 1988) was 3.77. The pIC50 ([12]; see also Kemp et al., 1988, unit inferred) was < 3.00.

In the case of `C[C@]12N[C@H](Cc3ccccc31)c1ccccc12` [MK-801], the “anticonvulsant activity (words, literature)” value [10] is given as “demonstrate anticonvulsant activity”.

For `O=C(O)c1cc2cc(F)ccc2[nH]1` [5-F-indole-2-COOH, 5-fluoro-indole-2-carboxylic acid], the “(Maximum Ineffective) Intraperitoneal Dose, Met” value [1] was 300 mg/kg, the minimal effective dose ([2]; read-out: Effective Intraperitoneal Dose, MES) was 100 mg/kg and the minimal effective dose ([2]; read-out: dose active in MES test) was 100 mg/kg. For the same compound, the “inhibition of potentiating action of glycine on NMDA current” value [13] was “inhibit competitively the potentiating action of glycine”, the NOAEL ([3]; Table 7, value in parentheses = maximum ineffective dose, read-out: (Maximum Ineffective) Intraperitoneal Dose, Rotorod) was 300 mg/kg and the “[3H]glycine binding inhibition” value [4] was “most potent inhibitor of [^3 H]glycine binding in this group”. The minimal effective dose [5] was 100 mg/kg.

With `O=C(O)c1cc(O)c2c(Cl)cc(Cl)cc2n1` [5,7-di-Cl-kyn-2-COOH] the minimal effective dose [1, 20] was 300 mg/kg, the minimal effective dose [1, 21] was 300 mg/kg and the “Met activity” value ([1]; mice, intraperitoneal) was “mild Met activity”. The NOAEL [3] was 300 mg/kg and the “protection against quinolinic acid induced seizures” value [14] was “protect against quinolinic acid induced seizures”.

For `CCOC(=O)c1cc(NC)c2c(Cl)cc(Cl)cc2n1` [ethyl 4-methylamino-5,7-dichloro-2-quinoline carboxylate], the “Sc MET” value ([1]; 30 minutes, 30 mg/kg) was 1/1, the “Sc MET” value ([1]; 30 minutes, 100 mg/kg) was 1/1 and the “Sc MET” value ([1]; 30 minutes, 300 mg/kg) was 1/1. The “Sc MET” value ([1]; 4 hours, 30 mg/kg) was 0/1, the “Sc MET” value ([1]; 4 hours, 100 mg/kg) was 0/1 and the “Sc MET” value ([1]; 4 hours, 300 mg/kg) was 0/1. The minimal effective dose [1, 20] was 30 mg/kg, the minimal effective dose [1, 21] was 30 mg/kg and the “Sc MET repeated: protected” value ([1]; 30 minutes, 30 mg/kg) was 1/4. For the same compound, the “Sc MET repeated: protected” value ([1]; 30 minutes, 100 mg/kg) was 2/4, the “Sc MET repeated: protected” value ([1]; 30 minutes, 300 mg/kg) was 4/4 and the MES ([2]; 30 minutes, 30 mg/kg) was 0/1. The MES ([2]; 30 minutes, 100 mg/kg) was 0/3, the MES ([2]; 30 minutes, 300 mg/kg) was 0/1 and the MES ([2]; 4 hours, 30 mg/kg) was 0/1. The MES ([2]; 4 hours, 100 mg/kg) was 0/3, the MES ([2]; 4 hours, 300 mg/kg) was 0/1 and the minimal effective dose [2, 19] was 30 mg/kg. For the same compound, the “Sc MET repeated: toxic” value ([15]; 30 mg/kg) was 0/4, the “Sc MET repeated: toxic” value ([15]; 100 mg/kg) was 0/4 and the “Sc MET repeated: toxic” value ([15]; 300 mg/kg) was 0/4. For the same compound, the NOAEL [3] was 300 mg/kg, the “solubility in chloroform and other non-polar solvents” value [16] was “appreciably soluble in chloroform and other non-polar solvents” and the “[3H]glycine binding inhibition” value [4] was “poor binding inhibition”. The minimal effective dose ([5]; mice, intraperitoneal) was ≤ 100 mg/kg, the CLASS ([5]; Phase I Identification: mice, i.p., classes not defined in the patent) was 1 and the “anticonvulsant activity (words)” value ([5]; mice, intraperitoneal) was “high anticonvulsant activity”. For the same compound, the “anticonvulsant activity (words)” value ([5]; mice, intraperitoneal, listed as ethyl 4-methylamino-5,7-dichloro-2-quinoline carboxylate) was “most potent anticonvulsant” and the “anticonvulsant activity (words)” value ([5]; mice, intraperitoneal, listed as ethyl-4-methylamino-5,7-dichloro-2-quinoline carboxylate) was “particularly effective anticonvulsant agent”.

For `O=C(O)c1cc(O)c2ccccc2n1` [kynurenic acid, 4-hydroxy-2-quinolinecarboxylic acid], the “excitatory amino acid antagonist activity at quisqualate receptors” value [8] is listed as “nonselective excitatory amino acid antagonist”, the “activity at strychnine-sensitive sites” value [17] is listed as “inactive” and the “excitatory amino acid antagonist activity at NMDA receptors” value [11] is listed as “nonselective excitatory amino acid antagonist”. The “excitatory amino acid antagonist activity at kainate receptors” value [12] was “nonselective excitatory amino acid antagonist”.

In the case of `O=C(O)c1cc2ccccc2[nH]1` [indole-2-carboxylic acid], the “activity at strychnine-sensitive sites” value [17] is listed as “inactive”.

Reference: patent US5493027A, “Anticonvulsive agents and uses thereof” (priority 1993, dated 1996)
